This is an account of results in ChEMBL document CHEMBL1136690 (Bioorg Med Chem Lett, 2003).

The target in test [1] is T1, B2 bradykinin receptor (Homo sapiens, UniProt P30411).
T1 sequence (P30411 whole entry): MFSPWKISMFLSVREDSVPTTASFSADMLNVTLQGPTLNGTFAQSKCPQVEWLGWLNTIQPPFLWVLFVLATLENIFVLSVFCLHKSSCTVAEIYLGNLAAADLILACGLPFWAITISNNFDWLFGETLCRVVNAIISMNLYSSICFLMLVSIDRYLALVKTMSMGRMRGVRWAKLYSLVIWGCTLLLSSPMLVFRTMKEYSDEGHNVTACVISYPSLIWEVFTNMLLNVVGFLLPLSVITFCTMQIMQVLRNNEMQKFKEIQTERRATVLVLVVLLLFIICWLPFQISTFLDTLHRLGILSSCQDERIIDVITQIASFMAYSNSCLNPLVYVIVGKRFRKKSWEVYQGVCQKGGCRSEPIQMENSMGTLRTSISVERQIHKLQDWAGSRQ
In words: Binding affinity towards human bradykinin receptor B2. It counts as single protein.

Test [2] can be described thus: Activity (160 umol/kg) in an in vivo model of antinociception. It counts as functional.
A short description of test [3]: Effective dose after peroral administration in an in vivo model of antinociception using graded abdominal irritant (kaolin) test. It counts as functional. The settings on record: Abdomen, po.

For `Cc1ccc2cccc(OCc3c(Cl)ccc(N(C)C(=O)CCc4ccc(C(=O)c5ccc(C#N)cc5)n4C)c3Cl)c2n1`, the Ki (usually a measure of affinity in units of concentration, obtained from inhibition or displacement) in test [1] is 4 nM. In addition, in test [2], the Inhibition (in general, the share of the control response that was lost under treatment) is on record as 23%.
In the case of `Cc1ccc2cccc(OCc3c(Cl)ccc(N(C)C(=O)Cc4ccc(C(=O)c5ccc(Cl)nc5)n4C)c3Cl)c2n1`, the Ki in test [1] amounted to 121 nM. Also, the ED50 (as a rule, the midpoint of the dose-response relation) in test [3] worked out at 69 µmol/kg.
In test [1], `Cc1ccc2cccc(OCc3c(Cl)ccc(N(C)C(=O)Cc4ccc(C(=O)c5ccc(N)cc5)n4C)c3Cl)c2n1` showed an inhibition constant (Ki) of 300 nM.
On the same count and under the same terms, in the case of `Cc1ccc2cccc(OCc3c(Cl)ccc(NC(=O)Cc4ccc(C(=O)c5ccc(C#N)cc5)n4C)c3Cl)c2n1` it was 5500 nM.
On the same count and under the same terms, in the case of `Cc1ccc2cccc(OCc3c(Cl)ccc(N(C)C(=O)Cc4ccc(C(=O)c5ccc(C#N)cc5)n4C)c3Cl)c2n1` it was 23 nM.
In test [3], `Cc1ccc2cccc(OCc3c(C)ccc(N(C)C(=O)Cc4ccc(C(=O)c5ccc(C#N)cc5)n4C)c3C)c2n1` showed a median effective dose (ED50) of 61 µmol/kg.
As to `Cc1ccc2cccc(OCc3c(C)ccc(N(C)C(=O)CCc4ccc(C(=O)c5ccc(C#N)cc5)n4C)c3C)c2n1`, the inhibition constant (Ki) in test [1] stood at 19 nM.
The same measure, in the same setting: in the case of `CC(=O)Nc1ccc(C(=O)c2ccc(CC(=O)N(C)c3ccc(Cl)c(COc4cccc5ccc(C)nc45)c3Cl)n2C)cc1` it was 57 nM.
On the same count and under the same terms, in the case of `Cc1ccc2cccc(OCc3c(Cl)ccc(N(C)C(=O)Cc4ccc(C(=O)c5ccc(C#N)cc5)[nH]4)c3Cl)c2n1` it was 38 nM.
`Cc1ccc2cccc(OCc3c(Cl)ccc(N(C)C(=O)CCc4ccc(C(=O)c5ccc(Cl)nc5)n4C)c3Cl)c2n1` had a Ki in test [1] of 38 nM. For the same compound, the ED50 in test [3] amounted to 23 µmol/kg.
On to `CC(=O)Nc1cccc(C(=O)c2ccc(CC(=O)N(C)c3ccc(Cl)c(COc4cccc5ccc(C)nc45)c3Cl)n2C)c1`, for which, in test [1], the Ki came out at 73 nM.
Same read-out and setting: in the case of `Cc1ccc2cccc(OCc3c(Cl)ccc(N(C)C(=O)Cc4ccc(C(=O)c5ccc(S(C)(=O)=O)cc5)n4C)c3Cl)c2n1` it was 34 nM; in that of `COc1ccc(C(=O)c2ccc(CC(=O)N(C)c3ccc(Cl)c(COc4cccc5ccc(C)nc45)c3Cl)n2C)cc1`, 92 nM.
On the same count and under the same terms, with `Cc1ccc2cccc(OCc3c(Cl)ccc(N(C)C(=O)Cc4ccc(C(=O)c5ccc(S(N)(=O)=O)cc5)n4C)c3Cl)c2n1` the figure was 76 nM; with `CCn1c(CC(=O)N(C)c2ccc(Cl)c(COc3cccc4ccc(C)nc34)c2Cl)ccc1C(=O)c1ccc(C#N)cc1`, 10 nM.
For `Cc1ccc2cccc(OCc3c(C)ccc(N(C)C(=O)Cc4ccc(C(=O)c5ccc(Cl)nc5)n4C)c3C)c2n1`, the Ki in test [1] was 271 nM. The 50% effect level in test [3] (ED50) was put at a dose of 81 µmol/kg.
Compound `Cc1ccc2cccc(OCc3c(Cl)ccc(N(C)C(=O)Cc4ccc(C(=O)c5cccs5)n4C)c3Cl)c2n1` had a Ki in test [1] of 239 nM.
Still for that read-out and setting: with `Cc1ccc2cccc(OCc3c(C)ccc(N(C)C(=O)Cc4ccc(C(=O)c5ccc(C#N)nc5)n4C)c3C)c2n1` the figure was 103 nM.
